Reference: publication PMC3669539, “Explant cultures of Rpe65^−/− mouse retina: a model to investigate cone opsin trafficking” (Molecular Vision, 2013)

Molecular target: T1, mouse UV cone opsin (Mus musculus, UniProt P51491)
T1 construct: gene Opn1sw; pMT-2 vector, COS-1 cell membranes; transducin from bovine retina as read-out
T1 sequence (P51491 1-346): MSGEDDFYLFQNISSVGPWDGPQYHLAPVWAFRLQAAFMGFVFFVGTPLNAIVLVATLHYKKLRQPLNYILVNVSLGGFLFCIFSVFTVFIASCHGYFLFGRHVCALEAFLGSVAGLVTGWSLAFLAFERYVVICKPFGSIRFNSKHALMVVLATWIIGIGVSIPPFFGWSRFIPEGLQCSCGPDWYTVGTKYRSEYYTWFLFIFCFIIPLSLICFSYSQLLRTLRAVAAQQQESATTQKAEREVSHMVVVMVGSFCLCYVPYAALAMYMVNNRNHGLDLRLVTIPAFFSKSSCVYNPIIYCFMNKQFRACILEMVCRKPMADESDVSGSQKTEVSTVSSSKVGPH
Assay: transducin activation, radioactive GTPgammaS35 filter-binding assay
Type: biochemical
Settings: agonist, 20 or 200 µM; COS-1 membranes, bovine transducin 2.5 µM, 3 µM GTPgammaS, pH 6.4, 50 mM MgCl2, dim red light

## CC1=C(/C=C/C(C)=C/C=C/C(C)=C/C(=O)O)C(C)(C)CCC1 [all-trans retinoic acid]
  transducin activation, radioactive GTPgammaS35 filter-binding assay: RA, on the other hand, did increase mouse UV-opsin activity significantly
